In patent publication US20250144067A1, “PERSONALIZED STARVATION THERAPY FOR CANCER” (Faeth Therapeutics, Inc., priority 2021, published 2025):
Where a name gives a salt, the structure may show the parent alone.

Experiments:
[1] = tested on: NCI-H292 lung cancer cells; test: FDA drug screening, complete media vs cholesterol-free media without statin (TABLE 1); format: cell-based, human
[2] = tested on: NCI-H292 lung cancer cells; test: FDA drug screening, complete media vs cholesterol-free media with simvastatin (TABLE 2); format: cell-based, human; settings: for Cholesterol-free media + simvastatin (0.04 μM) / Complete Media: NCI-H292 cells
[3] = Complete minus Cholesterol-free, […]
[4] = NCI-H292 cells in cholesterol-free media without statin
[5] = FDA drug library screen, cholesterol-free media with simvastatin 0.04 μM
[6] = FDA drug library screen, complete media
[7] = complete media minus cholesterol-free media + simvastatin, […]
[8] = Complete minus Cholesterol-free, >0 enhanced anti-cancer activity, about 0 neutral, <0 antagonist
[9] = NCI-H292 cells, cholesterol-free media without statin, FDA drug library screen
[10] = NCI-H292 cells, complete media, FDA drug library screen
[11] = drug in cholesterol-free media with simvastatin 0.04 μM
[12] = complete media vs cholesterol-free media + simvastatin (0.04 μM), >0 enhanced anti-cancer activity, about 0 neutral, <0 antagonist
[13] = NCI-H292 cells, cholesterol-free media without statin
[14] = FDA library drug in cholesterol-free media with simvastatin 0.04 μM
[15] = FDA library drug in complete media
[16] = complete media vs cholesterol-free media + simvastatin (0.04 μM), […]
[17] = cholesterol-free media with simvastatin 0.04 μM, FDA drug library screen (TABLE 2)
[18] = complete media, FDA drug library screen (TABLE 2)
[19] = complete media minus cholesterol-free media + simvastatin (0.04 μM), >0 enhanced anti-cancer activity, about 0 neutral, <0 antagonist
[20] = complete vs cholesterol-free media, […]
[21] = Complete minus Cholesterol-free, greater than 0 enhanced anti-cancer activity, about 0 neutral, below 0 antagonist
[22] = NCI-H292 cells, FDA drug library screen, cholesterol-free media without statin
[23] = NCI-H292 cells, FDA drug library screen, complete media

In the case of CCOC(=O)c1cncn1[C@H](C)c1ccccc1 [Etomidate (hydrochloride)], the Difference [1, 3] was −0.60, the Cholesterol-free [1, 4] was 1.469 and the Complete ([1]; NCI-H292 cells in complete media) was 0.8733. For the same compound, the “Cholesterol-free media + simvastatin (0.04 μM)” value [2, 5] was 0.8714, the “Complete Media” value [2, 6] was 1.097 and the Difference [2, 7] was 0.23.
Work on CCCCCCc1ccc(O)cc1O [Hexylresorcinol] yielded a Difference [1, 8] of 0.00, a Cholesterol-free [1, 9] of 1.034 and a Complete [1, 10] of 1.036. The “Cholesterol-free media + simvastatin (0.04 μM)” value [2, 11] was 1.514, the “Complete Media” value ([2]; drug in complete media) was 1.344 and the Difference [2, 12] was −0.17.
CN(CCCCCCCCCCN(C)C(=O)Oc1cccc([N+](C)(C)C)c1)C(=O)Oc1cccc([N+](C)(C)C)c1 [Demecarium Bromide] was tested, and the Difference [1, 3] was −0.29, the Cholesterol-free [1, 13] was 1.112 and the Complete ([1]; NCI-H292 cells, complete media) was 0.8186. The “Cholesterol-free media + simvastatin (0.04 μM)” value [2, 14] was 1.197, the “Complete Media” value [2, 15] was 0.9059 and the Difference [2, 16] was −0.29.
In the case of C[C@@H](O)[C@H]1C(=O)N2C(C(=O)O)=C(SCCN=CN)C[C@H]12 [Imipenem monohydrate], the Difference [1, 8] was −0.03, the Cholesterol-free [1, 9] was 1.1 and the Complete [1, 10] was 1.066. The “Cholesterol-free media + simvastatin (0.04 μM)” value [2, 17] was 0.9916, the “Complete Media” value [2, 18] was 0.9548 and the Difference [2, 19] was −0.04.
With C[N+](C)(C)C[C@H](O)CC(=O)[O-].Cl [L-Carnitine (hydrochloride)] the Cholesterol-free [1, 13] was 1.478, the Difference [1, 20] was −0.31 and the “Cholesterol-free media + simvastatin (0.04 μM)” value ([2]; cholesterol-free media with simvastatin 0.04 μM, […]) was 0.7755. For the same compound, the “Complete Media” value ([2]; complete media, […]) was 0.7998 and the Difference [2, 7] was 0.02.
With CC[C@H]1CN2CC[C@H]1C[C@@H]2[C@@H](O)c1ccnc2ccc(OC)cc12 [Hydroquinidine] the Difference [1, 8] was 0.06, the Cholesterol-free [1, 9] was 0.8191 and the Complete [1, 10] was 0.8815. For the same compound, the “Cholesterol-free media + simvastatin (0.04 μM)” value [2, 14] was 1.791, the “Complete Media” value [2, 15] was 1.518 and the Difference [2, 12] was −0.27.
In the case of CO[C@H]1/C=C/O[C@@]2(C)Oc3c(C)c([O-])c4c(O)c(cc(O)c4c3C2=O)NC(=O)/C(C)=C\C=C\[C@H](C)[C@H](O)[C@@H](C)[C@@H](O)[C@@H](C)[C@H](OC(C)=O)[C@@H]1C.[Na+] [Rifamycin (sodium)], the Cholesterol-free [1, 13] was 2.314, the Complete ([1]; NCI-H292 cells, complete media) was 1.878 and the Difference ([1]; complete vs cholesterol-free media, greater than 0 enhanced anti-cancer activity, about 0 neutral, below 0 antagonists) was −0.44. For the same compound, the “Cholesterol-free media + simvastatin (0.04 μM)” value [2, 14] was 1.045, the “Complete Media” value [2, 15] was 0.7505 and the Difference [2, 12] was −0.29.
Compound N=C(N)c1ccc(OCCCCCOc2ccc(C(=N)N)cc2)cc1.O=S(=O)(O)CCO.O=S(=O)(O)CCO [Pentamidine (isethionate)] has a Difference [1, 21] of −0.17, a Cholesterol-free [1, 22] of 0.6432 and a Complete [1, 23] of 0.4688. The “Cholesterol-free media + simvastatin (0.04 μM)” value ([2]; cholesterol-free media with simvastatin 0.04 μM, cell growth value in FDA drug screen) was 0.3285, the “Complete Media” value ([2]; complete media, cell growth value in FDA drug screen) was 0.4548 and the Difference ([2]; complete media minus cholesterol-free media + simvastatin, >0 enhanced anti-cancer activity, about 0 neutral, <0 antagonist) was 0.13.
Compound CC(C)C[C@H](N)C(=O)O [L-Leucine] has a Cholesterol-free [1, 9] of 1.354, a Complete [1, 10] of 1.837 and a Difference [1, 20] of 0.48. For the same compound, the “Cholesterol-free media + simvastatin (0.04 μM)” value [2, 11] was 1.064, the “Complete Media” value ([2]; drug in complete media) was 0.8826 and the Difference [2, 16] was −0.18.
With CNc1ncc(-c2ccc3c(=O)c(C(=O)O)cn(C4CC4)c3c2C)cc1C [Ozenoxacin] the Cholesterol-free [1, 13] was 1.08, the Complete ([1]; NCI-H292 cells, complete media) was 0.7589 and the Difference [1, 20] was −0.32. For the same compound, the “Cholesterol-free media + simvastatin (0.04 μM)” value [2, 5] was 0.8626, the “Complete Media” value [2, 6] was 0.762 and the Difference [2, 16] was −0.10.
CC(C)=CCOc1ccc(/C=C/C(=O)c2ccc(OCC=C(C)C)cc2OCC(=O)O)cc1 [Sofalcone] showed a Difference [1, 21] of −0.07, a Cholesterol-free [1, 22] of 0.9203 and a Complete [1, 23] of 0.8453. For the same compound, the “Cholesterol-free media + simvastatin (0.04 μM)” value [2, 17] was 0.8486, the “Complete Media” value [2, 18] was 0.7952 and the Difference [2, 19] was −0.05.
In the case of CC(C)NCC(O)c1ccc(O)c(O)c1 (stereo not shown) [Isoprenaline (hydrochloride)], the Difference ([1]; Complete minus Cholesterol-free, greater than 0 enhanced anti-cancer activity, about 0 neutral, below 0 antagonists) was −0.50, the Cholesterol-free [1, 4] was 1.676 and the “Cholesterol-free media + simvastatin (0.04 μM)” value [2, 5] was 1.496. The “Complete Media” value [2, 6] was 1.355 and the Difference [2, 12] was −0.14.
